Measurements from patent US20220306647A1, “NOVEL INDOLE-2-CARBOXAMIDES ACTIVE AGAINST THE HEPATITUS B VIRUS (HBV)” (AICURIS GMBH & CO. KG, priority 2019, published 2022).

Molecular target: T1, HBV core protein (C-terminal truncated core protein, 149 amino acids of the N-terminal assembly domain, BODIPY-FL labelled) (UniProt P03146)
T1 construct: fused on or other part: A single cysteine added after residue 149, at position 150; It carries the BODIPY-FL maleimide label
Assay: Biochemical capsid assembly assay (fluorescence quenching)
Conditions: assembly started with NaCl, fluorescence read after 6 min, read-out: Assembly activity
Method: The screening for assembly effector activity was done based on a fluorescence quenching assay published by Zlotnick et al. (2007). The C-terminal truncated core protein containing 149 amino acids of the N-terminal assembly domain fused to a unique cysteine residue at position 150 and was expressed in E. coli using the pET expression system (Merck Chemicals, Darmstadt). Purification of core dimer protein was performed using a sequence of size exclusion chromatography steps. In brief, the cell pellet from 1 L BL21 (DE3) Rosetta2 culture expressing the coding sequence of core protein cloned NdeI/XhoI into expression plasmid pET21b was treated for 1 h on ice with a native lysis buffer (Qproteome Bacterial Protein Prep Kit; Qiagen, Hilden). After a centrifugation step the supernatant was precipitated during 2 h stirring on ice with 0.23 g/ml of solid ammonium sulfate. Following further centrifugation the resulting pellet was resolved in buffer A (100 mM Tris, pH 7.5; 100 mM NaCl; 2 mM DTT) and was subsequently loaded onto a buffer A equilibrated CaptoCore 700 column (GE HealthCare, Frankfurt). The column flow through containing the assembled HBV capsid was dialyzed against buffer N (50 mM NaHCO3 pH 9.6; 5 mM DTT) before urea was added to a final concentration of 3M to dissociate the capsid into core dimers for 1.5 h on ice. The protein solution was then loaded onto a 1L Sephacryl S300 column. After elution with buffer N core dimer containing fractions were identified by SDS-PAGE and subsequently pooled and dialyzed against 50 mM HEPES pH 7.5; 5 mM DTT. To improve the assembly capacity of the purified core dimers a second round of assembly and disassembly starting with the addition of 5 M NaCl and including the size exclusion chromatography steps described above was performed. From the last chromatography step core dimer containing fractions were pooled and stored in aliquots at concentrations between 1.5 to 2.0 mg/ml at −80° C.
Immediately before labelling the core protein was reduced by adding freshly prepared DTT in a final concentration of 20 mM. After 40 min incubation on ice storage buffer and DTT was removed using a Sephadex G-25 column (GE HealthCare, Frankfurt) and 50 mM HEPES, pH 7.5. For labelling 1.6 mg/ml core protein was incubated at 4° C. and darkness overnight with BODIPY-FL maleimide (Invitrogen, Karlsruhe) in a final concentration of 1 mM. After labelling the free dye was removed by an additional desalting step using a Sephadex G-25 column. Labelled core dimers were stored in aliquots at 4° C. In the dimeric state the fluorescence signal of the labelled core protein is high and is quenched during the assembly of the core dimers to high molecular capsid structures. The screening assay was performed in black 384 well microtiter plates in a total assay volume of 10 μl using 50 mM HEPES pH 7.5 and 1.0 to 2.0 μM labelled core protein. Each screening compound was added in 8 different concentrations using a 0.5 log-unit serial dilution starting at a final concentration of 100 μM, 31.6 μM or 10 μM, In any case the DMSO concentration over the entire microtiter plate was 0.5%. The assembly reaction was started by the injection of NaCl to a final concentration of […] which induces the assembly process to approximately 25% of the maximal quenched signal. 6 min after starting the reaction the fluorescence signal was measured using a Clariostar plate reader (BMG Labtech, Ortenberg) with an excitation of 477 nm and an emission of 525 nm. As 100% and 0% assembly control HEPES buffer containing 2.5 M and 0 M NaCl was used. Experiments were performed thrice in triplicates. EC50 values were calculated by non-linear regression analysis using the Graph Pad Prism 6 software (GraphPad Software, La Jolla, USA).

T1 sequence (P03146 whole entry, the tested form may be a part): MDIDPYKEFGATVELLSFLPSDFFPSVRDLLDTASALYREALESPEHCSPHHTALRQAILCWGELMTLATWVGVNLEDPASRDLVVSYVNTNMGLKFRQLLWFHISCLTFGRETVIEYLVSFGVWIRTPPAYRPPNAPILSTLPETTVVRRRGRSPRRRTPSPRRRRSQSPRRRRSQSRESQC

CN(C(=O)c1[nH]nc2c1CN(C(=O)c1cc3c(Cl)cccc3[nH]1)CC2)C1(c2ncc(C(=O)O)cn2)CC1 [Example 70, 2-{1-[N-methyl-5-(4-chloro-1H-indole-2-carbonyl)-2H,4H,5H,6H,7H-pyrazolo[4,3-c]pyridine-3-amido]cyclopropyl}pyrimidine-5-carboxylic acid]
IC50: < 5 µM

CN(C(=O)c1[nH]nc2c1CN(C(=O)c1cc3c(F)c(F)ccc3[nH]1)CC2)C1(c2ncc(C(=O)O)cn2)CC1 [Example 71, 2-{1-[N-methyl-5-(4,5-difluoro-1H-indole-2-carbonyl)-2H,4H,5H,6H,7H-pyrazolo[4,3-c]pyridine-3-amido]cyclopropyl}pyrimidine-5-carboxylic acid]
IC50: < 5 µM

Cc1c(F)ccc2[nH]c(C(=O)N3CCc4n[nH]c(C(=O)N(C)C5(c6ncc(C(=O)O)cn6)CC5)c4C3)cc12 [Example 72, 2-{1-[N-methyl-5-(5-fluoro-4-methyl-1H-indole-2-carbonyl)-2H,4H,5H,6H,7H-pyrazolo[4,3-c]pyridine-3-amido]cyclopropyl}pyrimidine-5-carboxylic acid]
IC50: < 5 µM

Cc1cc(F)cc2[nH]c(C(=O)N3CCc4n[nH]c(C(=O)N(C)C5(c6ncc(C(=O)O)cn6)CC5)c4C3)cc12 [Example 73, 2-{1-[N-methyl-5-(6-fluoro-4-methyl-1H-indole-2-carbonyl)-2H,4H,5H,6H,7H-pyrazolo[4,3-c]pyridine-3-amido]cyclopropyl}pyrimidine-5-carboxylic acid]
IC50: < 5 µM

CN(C(=O)c1cnn2c1CN(C(=O)c1cc3ccccc3[nH]1)CC2)C1(COc2ccc(C(=O)O)cc2Cl)CC1 [Example 101, 3-chloro-4-({1-[N-methyl-5-(1H-indole-2-carbonyl)-4H,5H,6H,7H-pyrazolo[1,5-a]pyrazine-3-amido]cyclopropyl}methoxy)benzoic acid]
IC50: < 5 µM

O=C(c1cc2ccccc2[nH]1)N1CCc2noc(C(=O)N3CCC(O)CC34CC4)c2C1 (stereo not drawn) [Example 102, 4-[5-(1H-indole-2-carbonyl)-4H,5H,6H,7H-[1,2]oxazolo[4,3-c]pyridine-3-carbonyl]-4-azaspiro[2.5]octan-7-ol]
IC50: < 5 µM

C[C@@H](NC(=O)c1noc2c1CN(C(=O)c1cc3cc(F)c(F)cc3[nH]1)CC2)C(F)(F)F [Example 111, 5-(5,6-difluoro-1H-indole-2-carbonyl)-N-[(2R)-1,1,1-trifluoropropan-2-yl]-4H,5H,6H,7H-[1,2]oxazolo[4,5-c]pyridine-3-carboxamide]
IC50: < 5 µM

C[C@@H](NC(=O)c1noc2c1CN(C(=O)c1cc3c(F)cc(F)cc3[nH]1)CC2)C(F)(F)F [Example 112, 5-(4,6-difluoro-1H-indole-2-carbonyl)-N-[(2R)-1,1,1-trifluoropropan-2-yl]-4H,5H,6H,7H-[1,2]oxazolo[4,5-c]pyridine-3-carboxamide]
IC50: < 5 µM

C[C@@H](NC(=O)c1onc2c1CN(C(=O)c1cc3cc(F)c(F)cc3[nH]1)CC2)C(F)(F)F [Example 115, 5-(5,6-difluoro-1H-indole-2-carbonyl)-N-[(2R)-1,1,1-trifluoropropan-2-yl]-4H,5H,6H,7H-[1,2]oxazolo[4,3-c]pyridine-3-carboxamide]
IC50: < 5 µM

C[C@@H](NC(=O)c1onc2c1CN(C(=O)c1cc3c(Cl)cccc3[nH]1)CC2)C(F)(F)F [Example 118, 5-(4-chloro-1H-indole-2-carbonyl)-N-[(2R)-1,1,1-trifluoropropan-2-yl]-4H,5H,6H,7H-[1,2]oxazolo[4,3-c]pyridine-3-carboxamide]
IC50: < 5 µM

O=C(c1cc2c(F)c(F)ccc2[nH]1)N1CCc2nn3c(c2C1)C(=O)N(CCO)C1(CC3)CC1 [Example 120, 4′-(4,5-difluoro-1H-indole-2-carbonyl)-13′-(2-hydroxyethyl)-4′, 8′,9′,13′-tetraazaspiro[cyclopropane-1,12′-tricyclo[7.5.0.0^2,7]tetradecane]-1′,7′-dien-14′-one]
IC50: < 5 µM

O=C(c1cc2cc(F)c(F)cc2[nH]1)N1CCc2nn3c(c2C1)C(=O)N(CCO)C1(CC3)CC1 [Example 121, 4′-(5,6-difluoro-1H-indole-2-carbonyl)-13′-(2-hydroxyethyl)-4′, 8′,9′,13′-tetraazaspiro[cyclopropane-1,12′-tricyclo[7.5.0.0^2,7]tetradecane]-1′,7′-dien-14′-one]
IC50: < 5 µM

O=C(c1cc2cc(F)c(Cl)cc2[nH]1)N1CCc2nn3c(c2C1)C(=O)N(CCO)C1(CC3)CC1 [Example 122, 4′-(6-chloro-5-fluoro-1H-indole-2-carbonyl)-13′-(2-hydroxyethyl)-4′,8′,9′,13′-tetraazaspiro[cyclopropane-1,12′-tricyclo[7.5.0.0^2,7]tetradecane]-1′,7′-dien-14′-one]
IC50: < 5 µM

COCCN1C(=O)c2c3c(nn2CCC12CC2)CCN(C(=O)c1cc2ccccc2[nH]1)C3 [Example 123, 4′-(1H-indole-2-carbonyl)-13′-(2-methoxyethyl)-4′, 8′,9′,13′-tetraazaspiro[cyclopropane-1,12′-tricyclo[7.5.0.0^2,7]tetradecane]-1′,7′-dien-14′-one]
IC50: < 5 µM

CN(C)CCN1C(=O)c2c3c(nn2CCC12CC2)CCN(C(=O)c1cc2ccccc2[nH]1)C3 [Example 124, 13′-[2-(dimethylamino)ethyl]-4′-(1H-indole-2-carbonyl)-4′,8′,9′,13′-tetraazaspiro[cyclopropane-1,12′-tricyclo[7.5.0.0^2,7]tetradecane]-1′,7′-dien-14′-one]
IC50: 5 to 10 µM

CN1CCN(CCN2C(=O)c3c4c(nn3CCC23CC3)CCN(C(=O)c2cc3ccccc3[nH]2)C4)CC1 [Example 125, 4′-(1H-indole-2-carbonyl)-13′-[2-(4-methylpiperazin-1-yl)ethyl]-4′,8′,9′,13′-tetraazaspiro[cyclopropane-1,12′-tricyclo[7.5.0.0^2,7]tetradecane]-1′,7′-dien-14′-one]
IC50: < 5 µM

O=C(NC1(COC(F)F)CC1)c1onc2c1CN(C(=O)c1cc3ccccc3[nH]1)CC2 [Example 132, N-{1-[(difluoromethoxy)methyl]cyclopropyl}-5-(1H-indole-2-carbonyl)-4H,5H,6H,7H-[1,2]oxazolo[4,3-c]pyridine-3-carboxamide]
IC50: < 5 µM

O=C(NC1(COC(F)F)CC1)c1onc2c1CN(C(=O)c1cc3c(Cl)cccc3[nH]1)CC2 [Example 133, 5-(4-chloro-1H-indole-2-carbonyl)-N-{1-[(difluoromethoxy)methyl]cyclopropyl}-4H,5H,6H,7H-[1,2]oxazolo[4,3-c]pyridine-3-carboxamide]
IC50: < 5 µM

O=C(c1cc2ccccc2[nH]1)N1CCc2nn3c(c2C1)C(=O)N(CCN1CCOCC1)C1(CC3)CC1 [Example 134, 4′-(1H-indole-2-carbonyl)-13′-[2-(morpholin-4-yl)ethyl]-4′,8′,9′,13′-tetraazaspiro[cyclopropane-1,12′-tricyclo[7.5.0.0^2,7]tetradecane]-1′,7′-dien-14′-one]
IC50: < 5 µM

CN(C(=O)c1n[nH]c2c1CN(C(=O)c1cc3cc(F)c(Cl)cc3[nH]1)CC2)C1(c2ncc(C(=O)O)cn2)CC1 [Example 136, 2-{1-[N-methyl-5-(6-chloro-5-fluoro-1H-indole-2-carbonyl)-2H,4H,5H,6H,7H-pyrazolo[4,3-c]pyridine-3-amido]cyclopropyl}pyrimidine-5-carboxylic acid]
IC50: < 5 µM

O=C(O)c1ccc(C2(NC(=O)c3cnn4c3CN(C(=O)c3cc5ccccc5[nH]3)CC4)CC2)cc1 [Example 137, 4-{1-[5-(1H-indole-2-carbonyl)-4H,5H,6H,7H-pyrazolo[1,5-a]pyrazine-3-amido]cyclopropyl}benzoic acid]
IC50: < 5 µM
